Data taken from the supplement of paper PMC11451515.

Experiments:
Settings in all cases: 48 h
[1] = system: NOMO1; experiment: cell viability relative to DMSO control; higher = less cytotoxic
Procedure, shortened: (§1)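 In 1536-well plates, 5 μl of leukemia cells were seeded per well: 500 cells/well for NOMO1 or SEM and 1000 cells/well for P12-Ichikawa. Each line had first been adapted for at least four passages in each medium. Library compounds in DMSO were pin-dosed at 11 threefold concentrations between 47 μM and 0.79 nM, and CellTiter-Glo One luminescence was read after 48 h at 37°C. Viability is a per-plate percentage relative to DMSO wells, with cell-free wells as background.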

[2] = system: P12-Ichikawa; experiment: as above
Procedure, shortened: as §1

[3] = system: SEM cells; experiment: as above
Procedure, shortened: as §1

[4] = system: NOMO1; experiment: AUC of viability dose-response curve (% viability x log10 dose units); higher = less sensitive
Procedure, shortened: (§2)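 Seeding of medium-adapted leukemia cells was at 500 or 1000 cells/well in 1536-well plates, followed by 48 h at 37°C with library compounds in DMSO at 11 threefold doses from 47 μM to 0.79 nM. CellTiter-Glo One luminescence was normalised per plate to DMSO and cell-free wells and fitted as a four-parameter log-logistic function of log10 dose. Area under the curve was integrated by trapezoidal rule, with curves exceeding full viability scaled and curves failing quality control removed.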

[5] = system: P12-Ichikawa; experiment: as above
Procedure, shortened: as §2

[6] = system: SEM cells; experiment: as above
Procedure, shortened: as §2

CC(=O)NC(CS)C(=O)O (stereo not given)
cell viability [%]
Settings	[1]	[2]	[3]
HPLM + 10% dialyzed FBS, 0.000781 µM	81.1	81.9	71.5
HPLM + 10% dialyzed FBS, 0.00234 µM	93.2	82.9	71.7
HPLM + 10% dialyzed FBS, 0.00702 µM	104	88.7	75.7
HPLM + 10% dialyzed FBS, 0.0211 µM	82.7	88.4	63.5
HPLM + 10% dialyzed FBS, 0.0632 µM	96.9	91.3	82.3
HPLM + 10% dialyzed FBS, 0.19 µM	81.6	86.4	62.5
HPLM + 10% dialyzed FBS, 0.569 µM	78.8	89.3	66.7
HPLM + 10% dialyzed FBS, 1.71 µM	97	87.2	84.1
HPLM + 10% dialyzed FBS, 5.12 µM	78.2	87.3	90
HPLM + 10% dialyzed FBS, 15.4 µM	26.7	18.4	36.1
HPLM + 10% dialyzed FBS, 46.1 µM	27.5	27.5	62.3
RPMI 5 mM glucose + 10% FBS, 0.000781 µM	72.7	75.5	93.5
RPMI 5 mM glucose + 10% FBS, 0.00234 µM	81.1	74.2	93.7
RPMI 5 mM glucose + 10% FBS, 0.00702 µM	75.3	81.5	87.8
RPMI 5 mM glucose + 10% FBS, 0.0211 µM	74.4	78.2	99.1
RPMI 5 mM glucose + 10% FBS, 0.0632 µM	75.8	81.4	99.8
RPMI 5 mM glucose + 10% FBS, 0.19 µM	75.2	69.5	90.8
RPMI 5 mM glucose + 10% FBS, 0.569 µM	82.7	83.3	95.4
RPMI 5 mM glucose + 10% FBS, 1.71 µM	79.5	80.4	116
RPMI 5 mM glucose + 10% FBS, 5.12 µM	84.5	88.8	114
RPMI 5 mM glucose + 10% FBS, 15.4 µM	30.5	28.6	27.7
RPMI 5 mM glucose + 10% FBS, 46.1 µM	70.4	62.5	29.2
RPMI 5 mM glucose + 10% dialyzed FBS, 0.000781 µM	81.1	80.4	76.7
RPMI 5 mM glucose + 10% dialyzed FBS, 0.00234 µM	77.8	80.4	57.8
RPMI 5 mM glucose + 10% dialyzed FBS, 0.00702 µM	86.7	76.4	86.2
RPMI 5 mM glucose + 10% dialyzed FBS, 0.0211 µM	88.9	82.7	65.5
RPMI 5 mM glucose + 10% dialyzed FBS, 0.0632 µM	88.1	89.7	88.4
RPMI 5 mM glucose + 10% dialyzed FBS, 0.19 µM	75.8	79	64
RPMI 5 mM glucose + 10% dialyzed FBS, 0.569 µM	85.6	84.4	83.6
RPMI 5 mM glucose + 10% dialyzed FBS, 1.71 µM	80.1	88.8	78.7
RPMI 5 mM glucose + 10% dialyzed FBS, 5.12 µM	90.7	77.2	108
RPMI 5 mM glucose + 10% dialyzed FBS, 15.4 µM	27.8	27.8	30.9
RPMI 5 mM glucose + 10% dialyzed FBS, 46.1 µM	75.9	45.6	54.9

AUC of viability dose-response curve
Settings	HPLM + 10% dialyzed FBS	RPMI 5 mM glucose + 10% FBS	RPMI 5 mM glucose + 10% dialyzed FBS
[4]	376	352	377
[5]	369	354	359

CCc1cccc(CC)c1NC(=O)N1Cc2[nH]nc(NC(=O)c3ccc(N4CCN(C)CC4)cc3)c2C1
[3], HPLM + 10% dialyzed FBS
Settings	cell viability [%]
0.000781 µM	100
0.00234 µM	121
0.00702 µM	130
0.0211 µM	128
0.0632 µM	133
0.19 µM	138
0.569 µM	113
1.71 µM	89.2
5.12 µM	57.5
15.4 µM	22.1
46.1 µM	7.86

AUC of viability dose-response curve
Settings	[4]	[5]	[6]
HPLM + 10% dialyzed FBS	415	356	372
RPMI 5 mM glucose + 10% FBS	403	361	341
RPMI 5 mM glucose + 10% dialyzed FBS	394	373	344
